Results on two compounds are retold here after patent US9980479B2, “Method of reducing nematode damage” (Syngenta Crop Protection, LLC, priority 2004, dated 2018).

Like-named read-outs stand apart in the source and are kept apart here.

The subject of assay [1] is nematodes (Pratylenchus spp.). To be noted: tomato; for % yield increase over check / Total average weight of tomatoes per plant in gr: at harvest; for % damage of roots: drench 1, 14, 27 and 40 days after transplantation. As for the experimental part: Tomato plants are transplanted into a field infested with nematodes (Pratylenchus spp.) and treated with the treatments indicated in Table II below 1, 14, 27 and 40 days after transplantation. The products are applied by drenching 100 ml spray solution per plant. Plot size is 24 m^2 with 4 replicates. At harvest (up to 19 weeks later), all tomatoes are collected and weighted. The check is an untreated control.

The test system of assay [2] is nematodes (Meloidogyne spp.). To be noted: tomato; for % yield increase over check / Total average weight of tomatoes per 100 plant in kgr: at harvest; for % root galling: drench 1, 18, 32 and 46 days after transplantation. As for the experimental part:
Tomato plants are transplanted into a field infested with nematodes (Meloidogyne spp.) and treated with the treatments indicated in Table III below 1, 18, 32 and 46 days after transplantation. The products are applied by drenching 100 ml spray solution per plant. Plot size is 36.7 m^2 with 4 replicates. At harvest (up to 19 weeks later), all tomatoes are collected and weighted. The check is an untreated control.

Assay [3] has as its system Meloidogyne. Description: Experiment 5: sandy soil cup test, live 2nd stage nematodes from eggs. In kind it is in vivo. To be noted: applied solution 3 ppm, 15 days of incubation. As for the experimental part:
110 grams of dry sandy soil is put into plastic cups. The soil is treated by adding 25 ml of water containing given concentrations (in ppm) of chemicals to the soil. The soil and water is carefully mixed and thereafter 1 ml of water containing 12,000 eggs of Meloidogyne is added. After 15 days of incubation, the samples are analyzed for live 2nd stage nematodes by sieving the sand and rinsing with tap water. The amount of rinseate is adjusted to 20 ml. From the 20 ml, 3 samples of 1 ml are taken and nematodes counted, using a counting chamber.

For assay [4], the system named is Meloidogyne. Put plainly: Experiment 6: clay soil cup test, live 2nd stage nematodes from eggs. In kind it is in vivo. To be noted: applied solution 3 ppm, 15 days of incubation. As for the experimental part:
50 grams of dry clay soil is put into plastic cups. The soil is treated by adding 50 ml of water containing given concentrations (in ppm) of chemicals to the soil. The soil and water is carefully mixed, and thereafter 1 ml of water containing 10.,000 eggs of Meloidogyne is added. After 15 days of incubation, the samples are analyzed for live 2nd stage nematodes by sieving the clay, and rinsing with tap water. The amount of rinseate is adjusted to 20 ml. From the 20 ml, 3 samples of 1 ml are taken and nematodes counted, using a counting chamber.

The test system of assay [5] is nematodes (Pratylenchus spp.). Particulars: tomato; for % yield increase over check / Total average weight of tomatoes per treatment: at harvest; for % damage of roots: drench 1, 14, 27 and 40 days after transplantation. As for the experimental part: Tomato plants are transplanted into a field infested with nematodes (Pratylenchus spp.) and treated with the treatments indicated in Table I below 1, 14, 27 and 40 days after transplantation. The products are applied by drenching 100 ml spray solution per plant. Plot size is 24 m^2 with 4 replicates. At harvest (up to 19 weeks later), all tomatoes are collected and weighted. The check is an untreated control.

Assay [6] has as its system nematodes (Meloidogyne spp.). Particulars: tomato; for % yield increase over check / Total average weight of tomatoes per 100 plants: at harvest; for % average root galling: drench 1, 18, 32 and 46 days after transplantation. How it is done:
Tomato plants are transplanted into a field infested with nematodes (Meloidogyne spp.) and treated with the treatments indicated in Table IV below 1, 18, 32 and 46 days after transplantation. The products are applied by drenching 100 ml spray solution per plant. Plot size is 42.7 m^2 with 4 replicates. At harvest (up to 19 weeks later), all tomatoes are collected and weighted. The check is an untreated control.

For the compound “N,N′-ethylenebis(hydroxyphenyl)glycines [EDDHA]”, in assay [1] (500 g ai/ha), the “% yield increase over check” value is 11%, the “Total average weight of tomatoes per plant in gr” value is recorded as 3500 gr and the “% damage of roots” value is listed as 18.5%. In assay [1] (1000 g ai/ha), the “% yield increase over check” value was determined as 18%, the “Total average weight of tomatoes per plant in gr” value amounted to 3695 gr and the “% damage of roots” value worked out at 13.8%. In assay [2] (500 g ai/ha), the “% yield increase over check” value came out at 13%, the “Total average weight of tomatoes per 100 plant in kgr” value was 255 kgr and the “% root galling” value is given as 35%. Besides, in assay [2] (1000 g ai/ha), the “% yield increase over check” value was determined as 17%, the “Total average weight of tomatoes per 100 plant in kgr” value was 265 kgr and the “% root galling” value worked out at 26.1%. Further, in assay [3], the “% reduction of live stages” value worked out at 0.1% and the “Number of live 2nd stage nematodes” value was found to be 1649. Also, in assay [4], the “% reduction of live stages” value stood at 0.3% and the “Number of live 2nd stage nematodes” value was found to be 1197.
With `O=C(O)CN(CCN(CC(=O)O)CC(=O)O)CC(=O)O` [EDTA, ethylenediaminetetraacetic acid], in assay [5] (500 g ai/ha), the “% yield increase over check” value came out at 12%, the “Total average weight of tomatoes per treatment” value is reported as 784 kg and the “% damage of roots” value is given as 25.8%. Besides, in assay [5] (1000 g ai/ha), the “% yield increase over check” value is 17%, the “Total average weight of tomatoes per treatment” value is 817 kg and the “% damage of roots” value is reported as 22.5%. Besides, in assay [6] (500 g ai/ha), the “% yield increase over check” value was 6%, the “Total average weight of tomatoes per 100 plants” value amounted to 349 kg and the “% average root galling” value came out at 34.4%. In addition, in assay [6] (1000 g ai/ha), the “% yield increase over check” value is on record as 10%, the “Total average weight of tomatoes per 100 plants” value is listed as 360 kg and the “% average root galling” value is reported as 23.7%. Further, in assay [3], the “% reduction of live stages” value was 0.1% and the “Number of live 2nd stage nematodes” value is given as 1650. In assay [4], the “% reduction of live stages” value was 0.1% and the “Number of live 2nd stage nematodes” value came out at 1200.
